Measurements: the NIST ThermoML archive (doi:10.1021/je0602519)
Numbers after ± are expanded uncertainties.

Assays:
[1] = Liquid; for viscosity / mass density: 101 kPa; for mass density: Pycnometric method; for speed of sound: 101.33 kPa, Frequency=2 MHz, Linear variable-path acoustic interferometer
[2] = xn = mol fraction of the nth substance listed; details: 101 kPa, Liquid, x1 = 1; for speed of sound: Frequency=2 MHz, Linear variable-path acoustic interferometer; for mass density: Pycnometric method

| Structure (SMILES) | viscosity ([1]; 303.15 K) [mPa·s] | mass density ([1]; 303.15 K) [kg/m3] | speed of sound ([1]; 303.15 K) [m/s] | viscosity ([1]; 313.15 K) [mPa·s] | mass density ([1]; 313.15 K) [kg/m3] | speed of sound ([1]; 313.15 K) [m/s] | speed of sound ([2]; 303.15 K) [m/s] | mass density ([2]; 303.15 K) [kg/m3] | viscosity ([2]; 303.15 K) [mPa·s] | speed of sound ([2]; 313.15 K) [m/s] | mass density ([2]; 313.15 K) [kg/m3] | viscosity ([2]; 313.15 K) [mPa·s] |
| --- | --- | --- | --- | --- | --- | --- | --- | --- | --- | --- | --- | --- |
| CCCCCCCCO [octan-1-ol] | 6.433 ± 0.26 | 818.38 ± 0.29 | 1334 ± 3 | 4.603 ± 0.2 | 811.05 ± 0.3 | 1304 ± 3 | – | – | – | – | – | – |
| Cc1ccccc1 [toluene] + CCCCCCCO | – | – | – | – | – | – | 1289 ± 3 | 856.62 ± 0.31 | 0.525 ± 0.029 | 1256 ± 2 | 847.03 ± 0.32 | 0.471 ± 0.027 |
| CCCCCCCO [heptan-1-ol] | 5.048 ± 0.22 | 814.89 ± 0.29 | 1313 ± 3 | 3.712 ± 0.17 | 807.68 ± 0.3 | 1279 ± 3 | – | – | – | – | – | – |
| Cc1ccccc1 [toluene] + CCCCCCCCO | – | – | – | – | – | – | 1289 ± 3 | 856.62 ± 0.31 | 0.525 ± 0.029 | 1256 ± 2 | 847.03 ± 0.32 | 0.471 ± 0.027 |
| Cc1ccccc1 [toluene] | 0.525 ± 0.029 | 856.62 ± 0.31 | 1289 ± 3 | 0.471 ± 0.027 | 847.03 ± 0.32 | 1256 ± 2 | – | – | – | – | – | – |
| Cc1ccccc1 [toluene] + CCCCCCCCCCO | – | – | – | – | – | – | 1289 ± 3 | 856.62 ± 0.31 | 0.525 ± 0.029 | 1256 ± 2 | 847.03 ± 0.32 | 0.471 ± 0.027 |
| CCCCCCCCCCO [decan-1-ol] | 9.716 ± 0.37 | 822.87 ± 0.29 | 1366 ± 3 | 6.82 ± 0.28 | 815.97 ± 0.31 | 1334 ± 3 | – | – | – | – | – | – |
